Values joined by “and” are separate entries in the source; they are usually repeats but may differ in a detail not shown here. Equal values may be shown once.
Columns and labels:
OE19 (3A1) = biological target: T1, OE19 (3A1) (Homo sapiens, UniProt P30838); test: Cellular ALDEFLUOR assay in OE19 cells (preferential ALDH3A1 expression); conditions: for Cell_Efficacy: Table S4, OE19 cells; for Cell_CC-v2: Table S4, cellular curve class
T1 sequence (P30838 1-453): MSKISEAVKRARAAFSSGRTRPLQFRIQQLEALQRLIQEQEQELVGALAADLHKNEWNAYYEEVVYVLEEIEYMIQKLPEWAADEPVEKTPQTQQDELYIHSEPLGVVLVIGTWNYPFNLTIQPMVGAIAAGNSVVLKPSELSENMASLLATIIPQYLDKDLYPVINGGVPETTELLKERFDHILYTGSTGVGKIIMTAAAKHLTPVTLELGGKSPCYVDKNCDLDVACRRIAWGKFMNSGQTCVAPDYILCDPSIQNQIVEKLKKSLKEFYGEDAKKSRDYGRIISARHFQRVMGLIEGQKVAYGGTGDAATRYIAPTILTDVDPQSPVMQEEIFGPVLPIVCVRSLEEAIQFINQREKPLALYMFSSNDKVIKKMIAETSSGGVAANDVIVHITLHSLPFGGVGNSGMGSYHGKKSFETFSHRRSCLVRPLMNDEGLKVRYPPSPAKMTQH

Human ALDH3A1 = biological target: T2, Human ALDH3A1 (Homo sapiens, UniProt P30838); test: ALDH3A1 biochemical assay (benzaldehyde/NADP+, diaphorase-resazurin readout, 1,536-well)
T2 sequence (P30838 1-453): T1 sequence (P30838 1-453)

[1] = Table S4, biochemical curve class
[2] = Table S1, primary screen, curve class
[3] = Table S2, in-house analogs, curve class

Row | SMILES | AC50 (Human ALDH3A1) [µM] | Efficacy (Human ALDH3A1; Table S1, primary screen) | CC-v2 (Human ALDH3A1; [2]) | Efficacy (Human ALDH3A1; Table S2, in-house analogs) | CC-v2 (Human ALDH3A1; [3]) | other results
1 | Cc1cccc(CNC(=O)c2csc(N3CCN(c4cccc(C(F)(F)F)c4)CC3)n2)c1 [Compound 5] | 0.23 | – | – | – | – | AC50 (OE19 (3A1)): 3.13 µM; Cell_Efficacy (OE19 (3A1)): -101.21; Cell_CC-v2 (OE19 (3A1)): -2.2; IC50 (OE19 (3A1); cellular IC50 (Aldefluor), OE19 cells): 3.13 µM; IC50 (Human ALDH3A1; ALDH3A1 biochemical IC50): 0.23 µM and 0.229 µM; Efficacy (Human ALDH3A1; Table S4, biochemical): -100.07; CC-v2 (Human ALDH3A1; [1]): -1.1
2 | Cc1cccc(CNC(=O)c2csc(N3CCN(c4ccc(C(F)(F)F)cc4)CC3)n2)c1 [Compound 7] | 0.32 | – | – | – | – | AC50 (OE19 (3A1)): 0.88 µM; Cell_Efficacy (OE19 (3A1)): -93.28; Cell_CC-v2 (OE19 (3A1)): -1.1; Efficacy (Human ALDH3A1; Table S4, biochemical): -97.93; CC-v2 (Human ALDH3A1; [1]): -1.1
3 | Cc1cccc(CNC(=O)c2csc(N3CCN(c4cccc([N+](=O)[O-])c4)CC3)n2)c1 [Compound 8] | 0.36 | – | – | – | – | AC50 (OE19 (3A1)): 0.5 µM; Cell_Efficacy (OE19 (3A1)): -115.29; Cell_CC-v2 (OE19 (3A1)): -2.1; Efficacy (Human ALDH3A1; Table S4, biochemical): -84.72; CC-v2 (Human ALDH3A1; [1]): -1.1
4 | Cc1cccc(CNC(=O)c2csc(N3CCN(c4ccccc4Br)CC3)n2)c1 [Compound 9] | 0.41 | – | – | – | – | AC50 (OE19 (3A1)): 8.81 µM; Cell_Efficacy (OE19 (3A1)): -81.02; Cell_CC-v2 (OE19 (3A1)): -1.3; Efficacy (Human ALDH3A1; Table S4, biochemical): -99.96; CC-v2 (Human ALDH3A1; [1]): -1.1
5 | Cc1cccc(CNC(=O)c2csc(N3CCN(c4cccc(Br)c4)CC3)n2)c1 [Compound 10] | 0.41 | – | – | – | – | AC50 (OE19 (3A1)): 0.2 µM; Cell_Efficacy (OE19 (3A1)): -86.93; Cell_CC-v2 (OE19 (3A1)): -1.3; Efficacy (Human ALDH3A1; Table S4, biochemical): -94.28; CC-v2 (Human ALDH3A1; [1]): -1.1
6 | COc1ccc(OCc2cc(C(=O)NC(CO)C(C)C)no2)c2ccccc12 (centres unmarked) [NCGC00427669-01] | 3.98 | -69.95 | -1.2 | – | – | –
7 | COCc1noc(-c2ccc(NC[C@H]3CCc4ccccc4O3)nc2)n1 [NCGC00428876-01] | 31.6 | -39.16 | -2.2 | – | – | –
8 | COCCNC(=O)c1ccc2c(c1)N(C)C(CC(=O)NCC(C)C)CO2 (centres unmarked) [NCGC00429361-01] | 28.2 | -36.95 | -3 | – | – | –
9 | Cc1cccc(CNC(=O)c2csc(N3CCN(c4ccccc4)CC3)n2)c1 [NCGC00430642-01] | 1.41 | – | – | -74.85 | -1.2 | Efficacy (ALDH3A1 biochemical) (Human ALDH3A1): 74%; IC50 (Human ALDH3A1; ALDH3A1 biochemical IC50, text): 1.41 µM; LLE (Human ALDH3A1; Table S7, pAC50 − cLogP): 2.143
10 | COc1ccc(N2CCN(c3nc(C(=O)NCc4ccc(F)cc4F)cs3)CC2)cc1 [NCGC00430664-01] | 4.47 | – | – | -32.83 | -1.4 | –
11 | COc1ccc(N2CCN(c3nc(C(=O)NCc4ccccc4C)cs3)CC2)cc1 [NCGC00430666-01] | 3.55 | – | – | -54.85 | -1.2 | –
12 | COc1ccc(N2CCN(c3nc(C(=O)NCc4ccc(C)cc4)cs3)CC2)cc1 [NCGC00430668-01] | 3.98 | – | – | -57.20 | -1.2 | –
13 | COc1ccc(N2CCN(c3nc(C(=O)NCC4CCCCC4)cs3)CC2)cc1 [NCGC00430670-01] | 0.25 | – | – | -27.44 | -1.4 | –
14 | COc1ccc(N2CCN(c3nc(C(=O)NC4CC4)cs3)CC2)cc1 [NCGC00430672-01] | 0.11 | – | – | -32.51 | -1.2 | –
15 | COc1cccc(N2CCN(c3nc(C(=O)NCc4cccnc4)cs3)CC2)c1 [NCGC00430684-01] | 14.1 | – | – | -68.54 | -2.2 | –
16 | COc1cccc(N2CCN(c3nc(C(=O)NCc4ccncc4)cs3)CC2)c1 [NCGC00430686-01] | 12.6 | – | – | -75.42 | -2.2 | –
17 | COc1cccc(N2CCN(c3nc(C(=O)NCc4ccccc4F)cs3)CC2)c1 [NCGC00430688-01] | 2.82 | – | – | -45.69 | -1.2 | –
18 | O=C(NCc1ccccc1)c1csc(N2CCN(c3ccc(Cl)cc3)CC2)n1 [NCGC00430698-01] | 2 | – | – | -75.40 | -1.2 | –
19 | O=C(NC1CCCC1)c1csc(N2CCN(c3cccc(Cl)c3)CC2)n1 [NCGC00430704-01] | 15.8 | – | – | -42.05 | -2.4 | –
20 | O=C(NCc1ccncc1)c1csc(N2CCN(c3ccccc3F)CC2)n1 [NCGC00430720-01] | 15.8 | – | – | -57.30 | -2.2 | –
21 | O=C(NCc1ccc(F)cc1)c1csc(N2CCN(c3ccccc3F)CC2)n1 [NCGC00430726-01] | 2 | – | – | -64.54 | -1.2 | –
22 | O=C(NCC1CC1)c1csc(N2CCN(c3ccccc3F)CC2)n1 [NCGC00430728-01] | 28.2 | – | – | -37.07 | -2.4 | –
23 | O=C(NCc1cccs1)c1csc(N2CCN(c3ccccc3F)CC2)n1 [NCGC00430730-01] | 6.31 | – | – | -78.52 | -1.2 | –

Row | SMILES | AC50 (Human ALDH3A1) [µM] | Efficacy (Human ALDH3A1; Table S1, primary screen) | CC-v2 (Human ALDH3A1; [2]) | Efficacy (Human ALDH3A1; Table S2, in-house analogs) | CC-v2 (Human ALDH3A1; [3]) | other results
24 | O=C(NCc1ccccc1Cl)c1csc(N2CCN(c3ccc(F)cc3)CC2)n1 [NCGC00430734-01] | 1.78 | – | – | -71.11 | -1.2 | –
25 | O=C(NCc1cccs1)c1csc(N2CCN(c3ccc(F)cc3)CC2)n1 [NCGC00430736-01] | 7.08 | – | – | -65.35 | -1.2 | –
26 | COc1cccc(CNC(=O)CCNc2cnc3cnccn23)c1 [NCGC00433986-01] | 14.1 | -81.82 | -2.2 | – | – | –
27 | C[S+](=O)([O-])c1ccc(N2CCN(CC3(O)CNCCOC3)CC2)c(F)c1 (centres unmarked) [NCGC00435271-01] | 20 | -66.49 | -3 | – | – | –
28 | CCOc1ccc(C(=O)NC2CCN(c3cc(-c4ccc(OC)cc4)n[nH]3)C2)cc1OCC (centres unmarked) [NCGC00438182-01] | 2.51 | -29.34 | -1.4 | – | – | –
29 | CN(C)CC1(O)CCN(C(=O)Cn2cc(C(=O)C3CC3)c3ccccc32)C1 (centres unmarked) [NCGC00438461-01] | 35.5 | -41.61 | -2.4 | – | – | –
30 | O=C(Nc1ccc2c(c1)OCCO2)N1CCC(Cc2nnc(-c3ccncc3)[nH]2)C1 (centres unmarked) [NCGC00438506-01] | 5.62 | -41.70 | -2.4 | – | – | –
31 | COc1ccc(NC2CCCN(C(=O)c3cn(CCCN)nn3)C2)cc1 (centres unmarked) [NCGC00439852-01] | 0.89 | -61.76 | -1.2 | – | – | –
32 | CCCNC(=O)N1CC(Oc2ccc(-c3nc(C)no3)cc2)C1 [NCGC00441061-01] | 31.6 | -48.80 | -2.2 | – | – | –
33 | O=C(CCc1cc2n(n1)CCCNC2)Nc1ccc2c(c1)OCCO2 [NCGC00441819-01] | 15.8 | -25.02 | -2.4 | – | – | –
34 | COc1cccc(CN2CC(C(=O)NCc3cc4ccccc4[nH]3)CCC2=O)c1 (centres unmarked) [NCGC00449252-01] | 15.8 | -45.94 | -2.2 | – | – | –
35 | Cc1ccc2nc(CN3CCC(c4cccc(C#N)c4)CC3)cc(O)c2c1 [NCGC00449346-01] | 4.47 | -31.03 | -1.2 | – | – | –
36 | O=C(NCc1ccc(Cl)cc1)c1cc2n(n1)CC(c1ccc3c(c1)OCO3)OC2 (centres unmarked) [NCGC00450299-01] | 10 | -21.09 | -1.4 | – | – | –
37 | COc1cccc(CN2CC(Oc3ccccc3C(=O)NC3CC3)C2)c1 [NCGC00458073-01] | 39.8 | -51.44 | -3 | – | – | –
38 | COc1ccc(CCN2Cc3cc(NC(=O)Cc4cccs4)ccc3OCC2=O)cc1 [NCGC00475032-01] | 15.8 | -43.09 | -2.4 | – | – | –
39 | C=CCOc1c(OC)ccc2c1CN(Cc1ccccc1)C(=O)CCN2CC(O)COc1ccc(OC)cc1 (centres unmarked) [NCGC00501442-01] | 8.91 | -29.51 | -1.4 | – | – | –
40 | O=C(NCc1nc(-c2ccccc2)no1)C1CCN(c2cc(-n3cncn3)ncn2)CC1 [NCGC00526793-01] | 35.5 | -44.11 | -2.2 | – | – | –
41 | Cc1cc(C)c(C)c([S+](=O)([O-])NCCC(=O)N2CCc3[nH]c(=O)c(C#N)cc3C2)c1C [NCGC00527311-01] | 28.2 | -52.11 | -2.2 | – | – | –
42 | COc1ccc(CCC(=O)N2CCc3[nH]c(=O)c(C#N)cc3C2)c(OC)c1OC [NCGC00527314-01] | 35.5 | -47.14 | -2.4 | – | – | –
43 | O=C(NCC(F)(F)F)c1cc(C2CCN(C(=O)c3cc(-c4ccco4)n[nH]3)CC2)n[nH]1 [NCGC00528999-01] | 14.1 | -59.29 | -2.4 | – | – | –
44 | CC(O)c1ccc(CCNC(=O)C(=O)Nc2cc3c4c(c2)CC(=O)N4CCC3)s1 (centres unmarked) [NCGC00529385-01] | 11.2 | -31.52 | -2.2 | – | – | –
45 | Cc1cc(=O)[nH]c(N2CCC(NC(=O)NCc3ccco3)CC2)n1 [NCGC00530028-01] | 20 | -57.15 | -2.2 | – | – | –
46 | Cc1cc(OC2CN(C(=O)c3cc(-c4ccc(F)cc4)n[nH]3)C2)n2ncnc2n1 [NCGC00531207-01] | 14.1 | -93.27 | -2.3 | – | – | –

— paper PMC13266984 (Journal of medicinal chemistry, 2026)
